Reference: patent US11000033B2, “Ketone or oxime compound, and herbicide” (NISSAN CHEMICAL CORPORATION, priority 2014, dated 2021)

Legend:
Type in all cases: in vivo
[1] = tested on: rapeseed; assay: Test Example 4: effect on crop by soil treatment (symbol g); conditions: for g (rapeseed) effect on crop grade / Effect on crop grade, g: rapeseed: application herbicide amount 320 g/ha; for g: rapeseed, effect grade on crop: 320 g/ha
How it was run: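 Crop seeds, among them rice, wheat, beet and rapeseed, were sown in sterilized diluvial soil and covered with about 1.5 cm of soil. Boxes were kept in a greenhouse at 25° C. to 30° C. for plant growth.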

[2] = tested on: Amaranthus retroflexus; assay: Test Example 5: herbicidal effect by foliage application, plastic box (symbol N); conditions: 320 g/ha, 3 weeks after application
How it was run: (§1)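 After sowing into sterilized diluvial soil and growing two weeks under glass at 25° C. to 30° C., seedlings receive a uniform foliar spray of diluted emulsion. Damage is judged visually three weeks on.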

[3] = tested on: Setaria viridis; assay: Test Example 4: herbicidal effect by soil treatment (symbol G); conditions: for G (Setaria viridis) herbicidal effect grade / Herbicidal effect grade, G: Setaria viridis: application herbicide amount 320 g/ha; for G: Setaria viridis, herbicidal effect grade: 320 g/ha
How it was run: (§2)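 Seeds were sown in sterilized diluvial soil, covered with about 1.5 cm of soil, and the soil surface was sprayed with a water-diluted emulsion of the compound at a predetermined rate. Plants grew in a greenhouse at 25° C. to 30° C.; effects were scored visually 3 weeks after application.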

[4] = tested on: Chenopodium album; assay: Test Example 5: herbicidal effect by foliage application, plastic box (symbol O); conditions: 320 g/ha, 3 weeks after application
How it was run: as §1

[5] = tested on: Monochoria vaginalis; assay: Test Example 1: herbicidal activity, application before weed generation in submerged conditions (symbol C); conditions: application herbicide amount 320 g/ha
How it was run: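 Paddy pre-emergence test. Formulated emulsion, water-diluted to a predetermined rate, is applied to floodwater on sowing day; rice transplanted at 2.5 leaves. Effect read at 3 weeks on a 0–5 herbicidal-ratio scale.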

[6] = tested on: Chenopodium album; assay: Test Example 4: herbicidal effect by soil treatment (symbol O); conditions: application herbicide amount 320 g/ha
How it was run: as §2

[7] = tested on: Veronica persica; assay: Test Example 4: herbicidal effect by soil treatment (symbol R); conditions: for Herbicidal effect grade, R: Veronica persica / R (Veronica persica) herbicidal effect grade: application herbicide amount 320 g/ha; for R: Veronica persica, herbicidal effect grade: 320 g/ha
How it was run: as §2

[8] = tested on: Veronica persica; assay: Test Example 5: herbicidal effect by foliage application, plastic box (symbol R); conditions: 320 g/ha, 3 weeks after application
How it was run: as §1

| SMILES | g (rapeseed) effect on crop grade [1] | N: Amaranthus retroflexus, herbicidal effect grade [2] | G (Setaria viridis) herbicidal effect grade [3] | O: Chenopodium album, herbicidal effect grade [4] | Herbicidal effect grade, C: Monochoria vaginalis [5] | O (Chenopodium album) herbicidal effect grade [6] | R (Veronica persica) herbicidal effect grade [7] | R: Veronica persica, herbicidal effect grade [8] | N: Amaranthus retroflexus, herbicidal effect (criteria 0-5) [2] | R: Veronica persica, herbicidal effect (criteria 0-5) [8] | also measured |
| --- | --- | --- | --- | --- | --- | --- | --- | --- | --- | --- | --- |
| COCCOC1=C(c2c(C)cc(C)cc2C)C(=O)C(CC(C)=NOC)C1 (stereo not drawn) [1-037] | 0 (Herbicidal ratio of 5% or lower (almost no effect)) | 0 (Herbicidal ratio of 5% or lower (almost no effect)) | 0 (Herbicidal ratio of 5% or lower (almost no effect)) | 0 (Herbicidal ratio of 5% or lower (almost no effect)) | 0 (Herbicidal ratio of 5% or lower (almost no effect)) | 0 (Herbicidal ratio of 5% or lower (almost no effect)) | – | – | – | – | – |
| CC(=O)CC1CC(O)=C(c2c(C)cc(-c3ccc(OC(F)(F)F)cc3)cc2C)C1=O (stereo not drawn) [7-016] | – | – | – | – | – | – | – | – | – | – | Effect on crop grade, g: rapeseed [1]: 0 (Herbicidal ratio of 5% or lower (almost no effect)); N: Amaranthus retroflexus, herbicidal effect (criteria of Test Example 1) [2]: 0 (Herbicidal ratio of 5% or lower (almost no effect)); Herbicidal effect grade, R: Veronica persica [7]: 0 (Herbicidal ratio of 5% or lower (almost no effect)); R: Veronica persica, herbicidal effect (criteria of Test Example 1) [8]: 0 (Herbicidal ratio of 5% or lower (almost no effect)); Herbicidal effect grade, G: Setaria viridis [3]: 2 (Herbicidal ratio of 20% or higher and lower than 40%); O: Chenopodium album, herbicidal effect (criteria of Test Example 1) [4]: 0 (Herbicidal ratio of 5% or lower (almost no effect)); Herbicidal effect grade, O: Chenopodium album [6]: 0 (Herbicidal ratio of 5% or lower (almost no effect)) |
| CON=C(CC1CC(OC(=O)COc2ccccc2)=C(c2c(C)cc(C)cc2C)C1=O)C1CC1 (stereo not drawn) [1-063] | 0 (Herbicidal ratio of 5% or lower (almost no effect)) | 0 (Herbicidal ratio of 5% or lower (almost no effect)) | 5 (Herbicidal ratio of 90% or more (almost completely withered)) | 0 (Herbicidal ratio of 5% or lower (almost no effect)) | 0 (Herbicidal ratio of 5% or lower (almost no effect)) | – | 0 (Herbicidal ratio of 5% or lower (almost no effect)) | 4 (Herbicidal ratio of 70% or higher and lower than 90%) | – | – | – |
| CON=C(C)CC1CC(OC(=O)C(C)(C)Oc2ccccc2Cl)=C(c2c(C)cc(C)cc2C)C1=O (stereo not drawn) [1-064] | 4 (Herbicidal ratio of 70% or higher and lower than 90%) | 2 (Herbicidal ratio of 20% or higher and lower than 40%) | 5 (Herbicidal ratio of 90% or more (almost completely withered)) | 0 (Herbicidal ratio of 5% or lower (almost no effect)) | 1 (Herbicidal ratio of 5% or higher and lower than 20%) | – | 0 (Herbicidal ratio of 5% or lower (almost no effect)) | 3 (Herbicidal ratio of 40% or higher and lower than 70%) | – | – | – |
| CC(CC1CC(O)=C(c2c(C)cc(C)cc2C)C1=O)=NOCC[Si](C)(C)C (stereo not drawn) [1-055] | 0 (Herbicidal ratio of 5% or lower (almost no effect)) | 0 (Herbicidal ratio of 5% or lower (almost no effect)) | 4 (Herbicidal ratio of 70% or higher and lower than 90%) | 1 (Herbicidal ratio of 5% or higher and lower than 20%) | 0 (Herbicidal ratio of 5% or lower (almost no effect)) | 0 (Herbicidal ratio of 5% or lower (almost no effect)) | 0 (Herbicidal ratio of 5% or lower (almost no effect)) | – | – | – | – |
| CON=C(C)CC1CC(OC(=O)COCC(F)(F)F)=C(c2c(C)cc(C)cc2C)C1=O (stereo not drawn) [1-092] | – | – | – | – | 0 (Herbicidal ratio of 5% or lower (almost no effect)) | – | – | – | 3 (Herbicidal ratio of 40% or higher and lower than 70%) | 0 (Herbicidal ratio of 5% or lower (almost no effect)) | g: rapeseed, effect grade on crop [1]: 4 (Herbicidal ratio of 70% or higher and lower than 90%); R: Veronica persica, herbicidal effect grade [7]: 0 (Herbicidal ratio of 5% or lower (almost no effect)); G: Setaria viridis, herbicidal effect grade [3]: 5 (Herbicidal ratio of 90% or more (almost completely withered)); O: Chenopodium album, herbicidal effect (criteria 0-5) [4]: 0 (Herbicidal ratio of 5% or lower (almost no effect)) |
| CON=C(C)CC1CC(OC(=O)C(C)Cl)=C(c2c(C)cc(C)cc2C)C1=O (stereo not drawn) [1-042] | 4 (Herbicidal ratio of 70% or higher and lower than 90%) | 0 (Herbicidal ratio of 5% or lower (almost no effect)) | 5 (Herbicidal ratio of 90% or more (almost completely withered)) | 0 (Herbicidal ratio of 5% or lower (almost no effect)) | 4 (Herbicidal ratio of 70% or higher and lower than 90%) | 0 (Herbicidal ratio of 5% or lower (almost no effect)) | – | 1 (Herbicidal ratio of 5% or higher and lower than 20%) | – | – | – |
| CON=C(CC1CC(O)=C(c2c(C)cc(C#C[Si](C)(C)C)cc2C)C1=O)C(C)C (stereo not drawn) [9-005] | – | 0 (Herbicidal ratio of 5% or lower (almost no effect)) | – | 0 (Herbicidal ratio of 5% or lower (almost no effect)) | 0 (Herbicidal ratio of 5% or lower (almost no effect)) | – | – | 0 (Herbicidal ratio of 5% or lower (almost no effect)) | – | – | Effect on crop grade, g: rapeseed [1]: 0 (Herbicidal ratio of 5% or lower (almost no effect)); Herbicidal effect grade, R: Veronica persica [7]: 0 (Herbicidal ratio of 5% or lower (almost no effect)); Herbicidal effect grade, G: Setaria viridis [3]: 0 (Herbicidal ratio of 5% or lower (almost no effect)) |
| CON=C(C)CC1CC(OC(=O)COc2ccc(Cl)cc2Cl)=C(c2c(C)cc(C)cc2C)C1=O (stereo not drawn) [1-075] | – | – | 5 (Herbicidal ratio of 90% or more (almost completely withered)) | – | – | 0 (Herbicidal ratio of 5% or lower (almost no effect)) | – | – | 4 (Herbicidal ratio of 70% or higher and lower than 90%) | 0 (Herbicidal ratio of 5% or lower (almost no effect)) | – |
| CON=C(C)CC1CC(OC(=O)COc2ccc(I)cc2)=C(c2c(C)cc(C)cc2C)C1=O (stereo not drawn) [1-082] | – | – | – | – | 2 (Herbicidal ratio of 20% or higher and lower than 40%) | – | – | – | 0 (Herbicidal ratio of 5% or lower (almost no effect)) | 0 (Herbicidal ratio of 5% or lower (almost no effect)) | g: rapeseed, effect grade on crop [1]: 4 (Herbicidal ratio of 70% or higher and lower than 90%); R: Veronica persica, herbicidal effect grade [7]: 0 (Herbicidal ratio of 5% or lower (almost no effect)); G: Setaria viridis, herbicidal effect grade [3]: 5 (Herbicidal ratio of 90% or more (almost completely withered)); O: Chenopodium album, herbicidal effect (criteria 0-5) [4]: 1 (Herbicidal ratio of 5% or higher and lower than 20%) |
| CON=C(C)CC1CC(OC(=O)COc2ccc(C(C)=O)cc2)=C(c2c(C)cc(C)cc2C)C1=O (stereo not drawn) [1-080] | – | – | – | – | 3 (Herbicidal ratio of 40% or higher and lower than 70%) | – | – | – | 0 (Herbicidal ratio of 5% or lower (almost no effect)) | 1 (Herbicidal ratio of 5% or higher and lower than 20%) | g: rapeseed, effect grade on crop [1]: 4 (Herbicidal ratio of 70% or higher and lower than 90%); R: Veronica persica, herbicidal effect grade [7]: 0 (Herbicidal ratio of 5% or lower (almost no effect)); G: Setaria viridis, herbicidal effect grade [3]: 5 (Herbicidal ratio of 90% or more (almost completely withered)); O: Chenopodium album, herbicidal effect (criteria 0-5) [4]: 3 (Herbicidal ratio of 40% or higher and lower than 70%) |
| CON=C(C)CC1CC(OC(=O)COc2ccc(OC)cc2)=C(c2c(C)cc(C)cc2C)C1=O (stereo not drawn) [1-069] | 4 (Herbicidal ratio of 70% or higher and lower than 90%) | 5 (Herbicidal ratio of 90% or more (almost completely withered)) | 4 (Herbicidal ratio of 70% or higher and lower than 90%) | 2 (Herbicidal ratio of 20% or higher and lower than 40%) | 2 (Herbicidal ratio of 20% or higher and lower than 40%) | – | 0 (Herbicidal ratio of 5% or lower (almost no effect)) | 3 (Herbicidal ratio of 40% or higher and lower than 70%) | – | – | – |
| CON=C(C)CC1CC(OC(=O)C(C)(C)Oc2cccc(Cl)c2)=C(c2c(C)cc(C)cc2C)C1=O (stereo not drawn) [1-065] | 4 (Herbicidal ratio of 70% or higher and lower than 90%) | 2 (Herbicidal ratio of 20% or higher and lower than 40%) | 5 (Herbicidal ratio of 90% or more (almost completely withered)) | 2 (Herbicidal ratio of 20% or higher and lower than 40%) | 0 (Herbicidal ratio of 5% or lower (almost no effect)) | – | 0 (Herbicidal ratio of 5% or lower (almost no effect)) | 3 (Herbicidal ratio of 40% or higher and lower than 70%) | – | – | – |
